# Reference: patent US20200216493A1, “ANTIMICROBIAL PEPTIDES” (FERRING B.V., priority 2016, published 2020)
# Where two headings read alike, the source gives them in different places. Bridge positions count the residues as written; N and C are the ends. Square brackets hold non-standard residues; d marks the D form. Peptide text beside a SMILES is read from it. d(aIle) = CC[C@H](C)[C@@H](N)C(=O)O; dNMeF = CN[C@H](Cc1ccccc1)C(=O)O; hArg = N=C(N)NCCCC[C@H](N)C(=O)O
# How the values were obtained:
# [1] = tested on: B. fragilis
# [2] = tested on: C. difficile
# [3] = tested on: S.aureus; format: cell-based, Staphylococcus aureus
# Procedure: (§1) This assay was used to determine the minimum concentration of a test compound (i.e., an antimicrobial peptide described herein) able to inhibit the growth of a bacterial strain of interest. This is a standard method for measuring and comparing the potency of peptide-based antibacterial agents (Steinberg et al., Antimicrobial Agents and Chemotherapy 1997, 41 (8) 1738 - 1742 and Wiegand et al., Nature Protocols 2008, 3, 163-175).
# (§2) The MIC is reported in units of μg/mL.
# (§3) Bacterial cultures were grown by inoculating Mueller-Hinton Broth (MHB) with 3 or 4 representative colony (typical size, color, and shape) from a bacterial strain grown on a LB agar plate. Inoculated liquid cultures were grown at 37° C. with moderate shaking (200-250 rpm) until bacteria produced a visibly turbid suspension. Bacterial inoculum was approximated by measuring the optical density at 600 nm (0D600) of the bacterial culture against a sterile MHB blank. Typically, OD600=0.10 corresponds to ˜1×10^8 cfu/mL for S.aureus and OD600 =0.15 corresponds to ˜1×10^8 cfu/mL for E.coli.
# (§4) Test compounds were prepared as stock solutions in vehicle at a concentration 10 times the highest concentration to be tested for antibacterial activity (usually 320 μg/mL stock solutions). 2x serial dilutions in vehicle (at 10× the final test concentrations) of the test compounds were prepared from the test compound stock solutions in a non-binding 96 well plate.
# (§5) In a sterile clear flat bottom 96 well plate, 15 μL of each test compound dilution was added to 135 μL of ˜5×10^5 cfu/mL bacterial culture. Each concentration was tested in duplicate. Each experiment contained positive control wells for bacterial growth (i.e., no test compound added to bacteria) and sterility controls wells (i.e., sterile MHB and no test compounds added). 96 well plates containing bacterial cultures and test compounds were incubated at 37° C. for 16-20 hours with shaking at 200 rpm.
# (§6) After incubation, the MIC of each test compound was determined by measuring the OD600 of each well using a plate reader. Wells with OD600 >0.08 were considered to have bacterial growth and wells with OD600<0.08 were considered to have no bacterial growth. The lowest concentration of test agent able to inhibit bacterial growth (0D600<0.08 after 16-20 hours) was defined as the MIC.
# [4] = tested on: S. pneumoniae (8 isolates); format: cell-based, Streptococcus pneumonia; details: 20 h
# Procedure: (§7) The broth microdilution susceptibility assay followed the procedure described by the Clinical and Laboratory Standards Institute (CLSI) in CLSI document M7-A10.
# (§8) The following bacteria isolates were tested:
# (§9) S.aureus, S.epidermidis, E.faecalis, and E.faecium colonies were grown on TSA (Tryptone Soya Agar; cat.N. P05012A -OXOID) S.pneumoniae and S.pyogenes colonies were grown on TSASB ((TSA) Agar +5% Sheep Blood; cat.N. PB5012A -OXOID). An inoculum was prepared by making a direct saline suspension of isolated colonies selected from an 18 to 24 hours agar plate incubated at 35±2 ° C. in ambient air. The suspension was adjusted to achieve a turbidity equivalent to a 0.5 McFarland turbidity standard (1 to 2 ×10^8 Colony Forming Units (CFU)) and diluted 200 fold within 15 minutes in broth. (S.aureus, S.epidermidis, E.faecalis, and E.faecium were diluted in CAMHB: Mueller Hinton Broth 2, Cation-Adjusted (cat. N. 90922 Fluka); S.pneumoniae and S.pyogenes were diluted in CAMHB +2.5% lysed horse blood. All broth contained 0.002% polysorbate 80.
# (§10) 96-well plates were prepared containing 1 μL of the test compound (at 100× desired test concentration in 100% DMSO); compounds were tested at 8 final concentrations, i.e. 16 μg/mL, 8 μg/mL, 4 μg/mL, 2 μg/mL, 1 μg/mL, 0.5 μg/mL, 0.25 μg/mL, and 0.125 μg/mL. 100 μL of the broth dilution was dispensed in each well plate to have a final bacterial concentration in plate of ˜5×10^5 CFU/mL. The plates were incubated at 35±2° C. in ambient air for 20 hours.
# [5] = tested on: E. faecalis (5 isolates); format: cell-based, Enterococcus faecalis; details: 20 h
# Procedure: as §7, §8, §9, §10
# [6] = tested on: S. epidermidis (5 isolates); format: cell-based, Staphylococcus epidermidis; details: 20 h
# Procedure: as §7, §8, §9, §10
# [7] = in vitro; format: cell-based; details: human, HepG2 cells
# Procedure: Compounds were tested for cytotoxicity to a mammalian cell line HepG2 (Human hepatocyte carcinoma from ECACC (85011430)). Hep G2 cells were seeded into 96-well plates, 7500 cells/well in 100 μl medium (Minimum Essential Medium (Gibco 21090) supplemented with 2 mM L-Glutamine, 1% non-essential amino acids and 10% fetal bovine serum) and incubated for 20 hours at 37° C., 5% CO2. 100 μL of fresh medium containing a test compound or DMSO (for control) at 2× final concentration were added and incubated for 48 hours at 37° C., 5% CO2. The final concentration of DMSO in plate was 1%. At the end of this incubation, 20 μl MTT (Thiazolyl Blue Tetrazolium Bromide) solution 5 mg/ml in H2O (0.5 mg/ml final in well) was added to all wells. Cells were incubated with MTT for 4 hours at 37° C., 5% CO2. After incubation, medium containing MTT was removed; 200 μl of DMSO was added in each well and plates were put on a shaker for 5 minutes. Absorbance was read on a SpectraMax plate reader at 570 nm. Specific absorbance (Specific A570) was calculated by subtracting the mean absorbance values of the blank wells (no HepG2 cells) from each well. Control values were determined from wells containing cells and treated with medium+1% DMSO only (no test compound). % viability was calculated as:
# (Specific A570test compound/Specific A570control)×100.
# [8] = tested on: S. pyogenes (2 isolates); format: cell-based, Streptococcus pyogenes; details: 20 h
# Procedure: as §7, §8, §9, §10
# [9] = tested on: E.coli; format: cell-based, Escherichia coli; details: for MIC ratio Coli/Staph: ratio of E. coli MIC to S. aureus MIC
# Procedure: as §1, §2, §3, §4, §5, §6
# [10] = tested on: S. aureus (14 isolates); format: cell-based, Staphylococcus aureus; details: 20 h
# Procedure: as §7, §8, §9, §10
# [11] = tested on: E. faecium (3 isolates); format: cell-based, Enterococcus faecium; details: 20 h
# Procedure: as §7, §8, §9, §10
# [12] = broth microdilution, Example 17a
MIC B. fragilis [1] [µg/mL],MIC C. difficile [2] [µg/mL],MIC S. aureus [3] [µg/mL],S. pneumoniae (8) MIC90 [4] [µg/mL],E. faecalis (5) MIC90 [5] [µg/mL],S. epidermidis (MIC90) (5) [6] [µg/mL],S. pyogenes (2) MIC90 [8] [µg/mL],MIC E. coli [9] [µg/mL],MIC ratio Coli/Staph [9],S. Aureus (14) MIC90 [10] [µg/mL],E. faecium (3) MIC90 [11] [µg/mL],SMILES,"viability at 48 h, 100 µM [7] [%]","MIC S. aureus [3, 12] [µg/mL]","MIC E. coli [9, 12] [µg/mL]"
>32,0.03 to 0.06,0.03 to 0.06,≤0.12,0.5,≤0.12,≤0.12,>16,>530,≤0.12,0.5,"CC[C@H](C)[C@H](NC(=O)[C@@H](Cc1ccccc1)NC)C(=O)N[C@@H](CO)C(=O)N[C@H](CCC(N)=O)C(=O)N[C@@H](C(=O)N[C@H](C(=O)N[C@@H](CO)C(=O)N[C@H]1C(=O)N[C@@H](C)C(=O)N[C@@H](CCCCNCc2ccccc2)C(=O)N[C@@H]([C@@H](C)CC)C(=O)O[C@H]1C)[C@@H](C)CC)[C@@H](C)CC [Compound 71, H-D-MePhe-Ile-Ser-D-Gln-D-aIle-Ile-Ser-c(D-Thr-Ala-Lys(Bn)-Ile)]",92,–,–
–,–,–,0.25,2,0.5,0.25,–,–,0.5,2,"CC[C@H](C)[C@H](NC(=O)[C@@H](Cc1ccccc1)NC)C(=O)N[C@@H](CO)C(=O)N[C@H](CCC(N)=O)C(=O)N[C@@H](C(=O)N[C@H](C(=O)N[C@@H](CO)C(=O)N[C@H]1C(=O)N[C@@H](C)C(=O)N[C@@H](CCCNC(=N)N)C(=O)N[C@@H]([C@@H](C)CC)C(=O)O[C@H]1C)[C@@H](C)CC)[C@@H](C)CC [[Arg10]teixobactin, reference compound]",115,–,–
–,–,–,≤0.12,2,0.5,0.25,–,–,0.5,1,"CC[C@H](C)[C@H](NC(=O)[C@@H](Cc1ccccc1)NC)C(=O)N[C@@H](CO)C(=O)N[C@H](CCC(N)=O)C(=O)N[C@@H](C(=O)N[C@H](C(=O)N[C@@H](CO)C(=O)N[C@H]1C(=O)N[C@@H](C)C(=O)N[C@@H](CCCCN)C(=O)N[C@@H]([C@@H](C)CC)C(=O)O[C@H]1C)[C@@H](C)CC)[C@@H](C)CC [[Lys10]teixobactin, reference compound]",95.6,–,–
>32,0.12,0.25,–,–,–,–,16,64,–,–,CC[C@H](C)[C@H](NC(=O)[C@@H](Cc1ccccc1)NC)C(=O)N[C@@H](CO)C(=O)N[C@H](CCC(N)=O)C(=O)N[C@@H](C(=O)N[C@H](C(=O)N[C@@H](CO)C(=O)N[C@H]1C(=O)N[C@@H](C)C(=O)N[C@@H](CCCCN)C(=O)N[C@@H]([C@@H](C)CC)C(=O)O[C@H]1C)[C@@H](C)CC)[C@@H](C)CC [Lys10-teixobactin],–,–,–
>32,0.03,0.13,–,–,–,–,8,62,–,–,"CC[C@H](C)[C@H](NC(=O)[C@@H](Cc1ccccc1)NC)C(=O)N[C@@H](CO)C(=O)N[C@H](CCC(N)=O)C(=O)N[C@@H](C(=O)N[C@H](C(=O)N[C@@H](CO)C(=O)N[C@H]1C(=O)N[C@@H](C)C(=O)N[C@@H](CCCCNC(=N)NC)C(=O)N[C@@H]([C@@H](C)CC)C(=O)O[C@H]1C)[C@@H](C)CC)[C@@H](C)CC [Compound 6, H-D-MePhe-Ile-Ser-D-Gln-D-aIle-Ile-Ser-c(D-Thr-Ala-Har(Me)-Ile)]",–,–,–
>32,0.06,0.09,–,–,–,–,>32,>356,–,–,"CC[C@H](C)[C@H](NC(=O)[C@@H](Cc1ccccc1)NC)C(=O)N[C@@H](Cc1c[nH]c2ccccc12)C(=O)N[C@H](CCC(N)=O)C(=O)N[C@@H](C(=O)N[C@H](C(=O)N[C@@H](CO)C(=O)N[C@H]1C(=O)N[C@@H](C)C(=O)N[C@@H](CCCCNC(=N)N)C(=O)N[C@@H]([C@@H](C)CC)C(=O)O[C@H]1C)[C@@H](C)CC)[C@@H](C)CC [Compound 2, H-D-MePhe-Ile-Trp-D-Gln-D-aIle-Ile-Ser-c(D-Thr-Ala-Har-Ile)]",–,–,–
–,–,–,≤0.12,0.5,0.25,≤0.12,–,–,0.5,0.25,"CC[C@H](C)[C@H](NC(=O)[C@@H](Cc1ccccc1)NC)C(=O)N[C@@H](Cc1cccc2ccccc12)C(=O)N[C@H](CCC(N)=O)C(=O)N[C@@H](C(=O)N[C@H](C(=O)N[C@@H](CO)C(=O)N[C@H]1C(=O)N[C@@H](C)C(=O)N[C@@H](CCCCNC(=N)N)C(=O)N[C@@H]([C@@H](C)CC)C(=O)O[C@H]1C)[C@@H](C)CC)[C@@H](C)CC [Compound 73, H-D-MePhe-Ile-lNal-D-Gln-D-aIle-Ile-Ser-c(D-Thr-Ala-Har-Ile)]",113,–,–

SMILES,MIC B. fragilis [1] [µg/mL],MIC C. difficile [2] [µg/mL],MIC S. aureus [3] [µg/mL],S. pneumoniae (8) MIC90 [4] [µg/mL],E. faecalis (5) MIC90 [5] [µg/mL],S. epidermidis (MIC90) (5) [6] [µg/mL],S. pyogenes (2) MIC90 [8] [µg/mL],MIC E. coli [9] [µg/mL],MIC ratio Coli/Staph [9],S. Aureus (14) MIC90 [10] [µg/mL],E. faecium (3) MIC90 [11] [µg/mL],"viability at 48 h, 100 µM [7] [%]","MIC S. aureus [3, 12] [µg/mL]","MIC E. coli [9, 12] [µg/mL]"
"CC[C@H](C)[C@H](NC(=O)[C@@H](Cc1ccccc1)NC)C(=O)N[C@@H](CCCCN)C(=O)N[C@H](CCC(N)=O)C(=O)N[C@@H](C(=O)N[C@H](C(=O)N[C@@H](CO)C(=O)N[C@H]1C(=O)N[C@@H](C)C(=O)N[C@@H](CCCCNC(=N)N)C(=O)N[C@@H]([C@@H](C)CC)C(=O)O[C@H]1C)[C@@H](C)CC)[C@@H](C)CC [Compound 1, H-D-MePhe-Ile-Lys-D-Gln-D-aIle-Ile-Ser-c(D-Thr-Ala-Har-Ile)] (H-[dNMeF]IK[dQ][d(aIle)]IS[dT]A[hArg]I; ester 8-C)",>32,<0.03,–,–,–,–,–,–,67,–,–,–,0.06,4
